Test results as given in patent publication US20240075017A1 (priority 2021, published 2024).

Test system: SARS-CoV-2 (B.1.351, beta variant)
Design: species or system C57BL/6 mice
Conditions: mouse, in vivo

Nc1nccc2c1ncn2[C@@H]1C=C(CO)[C@@H](O)[C@H]1O [DZNep, 3-deazaneplanocin A]
abundance of viral transcripts N, M and E in lung RNA by RT-qPCR: significant DZNep-dependent reduction in abundance of viral transcripts | lung infectious viral load (titration of lung homogenate supernatant on Vero E6 cells): significant reduction of the viral load in the lungs
